Assay results taken from ChEMBL document CHEMBL1149564, “Synthesis and bioevaluation of N-(arylalkyl)-homospermidine conjugates” (Bioorg Med Chem Lett, 2007).

Assays:
[1] = test system: B16; experiment: Ratio of IC50 for mouse B16 cells in presence of SPD to IC50 for mouse B16 cells; assay type: functional
[2] = test system: L1210; experiment: Cytotoxicity against mouse L1210 cells by MTT assay; assay type: functional, cell-based
[3] = test system: B16; experiment: Cytotoxicity against mouse B16 cells by MTT assay; assay type: functional, cell-based
[4] = test system: L1210; experiment: Ratio of IC50 for mouse L1210 cells to IC50 for mouse L1210 cells in presence of […]; assay type: functional
[5] = test system: HeLa; experiment: Cytotoxicity against human HeLa cells by MTT assay; assay type: functional, cell-based
[6] = test system: B16; experiment: Cell cycle arrest in B16 cells by accumulation at G1 phase at 1 uM after 24 hrs; assay type: functional, Mus musculus
[7] = test system: B16; experiment: Cell cycle arrest in B16 cells by accumulation at G2 phase at 1 uM after 24 hrs; assay type: functional, Mus musculus
[8] = test system: B16; experiment: Induction of apoptosis in B16 cells at 1 uM after 24 hrs; assay type: functional, Mus musculus
[9] = test system: B16; experiment: Cell cycle arrest in B16 cells by accumulation at G2 phase at 0.1 uM after 24 hrs; assay type: functional, Mus musculus
[10] = test system: B16; experiment: Cell cycle arrest in B16 cells by accumulation at S phase at 0.1 uM after 24 hrs; assay type: functional, Mus musculus
[11] = test system: B16; experiment: Cell cycle arrest in B16 cells by accumulation at G1 phase at 0.1 uM after 24 hrs; assay type: functional, Mus musculus
[12] = test system: B16; experiment: Induction of apoptosis in B16 cells at 0.1 uM after 24 hrs; assay type: functional, Mus musculus
[13] = test system: B16; experiment: Cell cycle arrest in B16 cells by accumulation at S phase at 1 uM after 24 hrs; assay type: functional, Mus musculus
[14] = test system: FL5.12; experiment: Induction of apoptosis in BALB/c mouse FL5.12A pro-B cells in the presence of 0.1 ng/mL IL3; assay type: functional
[15] = test system: FL5.12; experiment: Induction of apoptosis in BALB/c mouse FL5.12A pro-B cells; assay type: functional
[16] = test system: FL5.12; experiment: Induction of apoptosis in BALB/c mouse FL5.12A pro-B cells in the presence of 2 ng/mL IL3; assay type: functional

| SMILES | Ratio IC50 [1] | IC50 [2] | IC50 [3] | Ratio IC50 [4] | IC50 [5] | further results |
| --- | --- | --- | --- | --- | --- | --- |
| Cl.c1ccc2c(CNCCCCNCCCCN3CCNCC3)c3ccccc3cc2c1 | 2 | > 50 µM | 6.07 µM | >2.5 | 9.58 µM |  |
| Cl.NCCCCNCCCCNCc1ccc(-c2ccccc2)cc1 | 2.4 | 9.98 µM | 1.22 µM | 2.05 | 3.61 µM | Activity [6]: 39.13%; Activity [7]: 0.04%; Activity [8]: 42.47%; Activity [9]: 10.45%; Activity [10]: 40.37%; Activity [11]: 49.18%; Activity [12]: 17.35%; Activity [13]: 68.83% |
| Cl.c1ccc2c(CNCCCCNCCCCN3CCNCC3)cccc2c1 | 2.3 | > 50 µM | 5.46 µM | >1 | 3.6 µM |  |
| Cl.NCCCCNCCCCNCc1ccc2ccccc2c1 | 3.8 | 16.9 µM | 1.66 µM | 2.08 | 1.9 µM |  |
| COc1ccc2cc(CNCCCCNCCCCN)ccc2c1.Cl | 3.6 | 15.1 µM | 4.88 µM | 2.69 | 1.2 µM |  |
| Cl.NCCCCNCCCCNCc1c2ccccc2cc2ccccc12 | 6.6 | 4.8 µM | 0.31 µM | 1.33 | 1.1 µM | Activity [6]: 80.19%; Activity [7]: 10.1%; Activity [8]: 37.26%; Activity [9]: 10.72%; Activity [10]: 11.29%; Activity [11]: 77.99%; Activity [12]: 12.49%; Activity [13]: 10.1% |
| COc1ccc2cc(CNCCCCNCCCCN3CCNCC3)ccc2c1.Cl |  | 15.1 µM | > 50 µM | 1.76 | 11.3 µM |  |
| Cl.c1ccc(-c2ccc(CNCCCCNCCCCN3CCNCC3)cc2)cc1 |  | 20.3 µM | > 50 µM | 2.71 | 26.8 µM |  |
| CCCCNCc1ccc2cc(OC)ccc2c1 |  |  | 15 µM |  | 12.5 µM |  |
| CCCCNCc1ccc(-c2ccccc2)cc1 |  |  | 10.8 µM |  | 10.9 µM |  |
| Cl.NCCCCNCCCCNCc1cccc2ccccc12 | 2.5 | 8.04 µM | 2.33 µM | 1.58 | 1.38 µM |  |
| Cl.c1ccc2cc(CNCCCCNCCCCN3CCNCC3)ccc2c1 | 9 | 35.8 µM | 2.89 µM | 1.53 | 3.7 µM |  |
| N=C(N)NN [PIMAGEDINE] |  |  |  |  |  | Activity [14]: 3%; Activity [15]: 80%; Activity [16]: 5% |
| Cl.NCCCCNCCCCNCC1CCCc2ccccc21 (stereo not given) | 1.7 | 14.8 µM | 6.96 µM | 1.63 |  |  |
